Structures can show the parent of a compound that is named as a salt. Where two headings read alike, the source gives them in different places.
Key:
gastric mucosa = assay: Effect on gastric erosions (Adami index); assay type: in vivo; details: for N^o GASTRIC EROSIONS / SEVERITY: Adami index
Description: A comparison test between betahistine hydrochloride and betahistine fumarate was carried out, evaluating the toxicity (LD₅₀) and the effect on gastric erosions, at equimolar doses.
Admnistration volume = 15 ml/kg Evaluation of the stomach conditions = 1h after administration according to Adami index.

[1] = pH of the administered treatment; assay type: physicochemical; details: treatment as administered in the gastric erosion test
[2] = Bioavailability test on rats; details: rat, in vivo
Description: The AUCs, in the time 0-3 hours, for betahistine fumarate and betahistine dihydrochloride evidence no significant differences (8.2 vs 7.6 h.µg/ml, respectively).

Solubility = assay type: physicochemical
[3] = Partition coefficient octanol/buffer; assay type: physicochemical; details: for logD: octanol/buffer, pH 9, octanol/buffer pH = 9.0
[4] = 20 mmoles/kg, administration volume 15 ml/kg, 1h after administration, dihydrochloride
[5] = 20 mmoles/kg, administration volume 15 ml/kg, 1h after administration

CNCCc1ccccn1 [BETAHISTINE DIHYDROCHLORIDE, betahistine dihydrochloride, reference compound]
N^o GASTRIC EROSIONS (gastric mucosa; [4]): 7.92±1.26 | SEVERITY (gastric mucosa; [4]): 3.85±0.35 | % ANIMALS WITH EROSIONS: serious erosions (gastric mucosa; [4]): 92.32% serious erosions | pH ([1]; dihydrochloride): BETAHISTINE DIHYDROCHLORIDE pH=1.6 | AUC [2]: 7600 ng·h/mL | bioavailability [2]: substantially the same bioavailability

CNCCc1ccccn1 [BETAHISTINE FUMARATE, Betahistine Fumarate]
% ANIMALS WITH EROSIONS: diffused bleeding (gastric mucosa; [5]): 20% | % ANIMALS WITH EROSIONS: serious erosions (gastric mucosa; [5]): 10% | N^o GASTRIC EROSIONS (gastric mucosa; [5]): 0.3±0.3 | SEVERITY (gastric mucosa; [5]): 0.6±0.31 | effect on gastric erosions (gastric mucosa; equimolar doses, compared with the hydrochloride): markedly improved | pH [1]: BETAHISTINE FUMARATE pH = 4.19 | plasmatic curve peak after the administration [2]: 15 min | AUC at 3 h ([2]; rats, 0-3 hours, read-out: AUCs, in the time 0-3 hours): 8200 ng·h/mL | Solubility in acetone (Solubility; acetone): poorly soluble | Solubility in acid aqueous solutions (Solubility; acid aqueous solutions): soluble | Solubility in chloroform (Solubility; chloroform): almost unsoluble | Solubility in ethanol (Solubility; ethanol): soluble | Solubility in methanol (Solubility; methanol): soluble | Solubility in water (Solubility; water): soluble | logD ([3]; read-out: Partition coefficient P (converted)): -0.904 | logD ([3]; read-out: logP): 0.904

CNCCc1ccccn1 [BETAHISTINE, [2-(2-Pyridyl)ethyl]-methylamine]
Partition coefficient P ([3]; octanol/buffer pH = 9.0): 0.147
